Data reported in patent publication US20120149598A1, “FEEDER CELLS FOR TARGET CELL INDUCTION” (priority 2009, published 2012).

Tests used:
[1] = system: hTERT+TK-transduced human corneal stromal cells; experiment: Susceptibility to ganciclovir treatment, cell count with trypan-blue staining; assay type: cell-based; details: n=3
Protocol: (§1) The susceptibilities of the transduced human corneal stromal cells to ganciclovir treatment were investigated by the following process. The hTERT-transduced human corneal stromal cells of Comparative Example and the hTERT+TK-transduced human corneal stromal cells of Example 1 were separately seeded at 2×10^4 cells/cm^2 in a 24-well plate, and cultured under conditions of 37° C. and 5% CO2 (medium: DMEM, 10% FBS, 100 U/ml penicillin and 100 μg/ml streptomycin). On the 1st day after seeding, ganciclovir treatment was started (treatment concentration: 0, 10^−7, […], […], and 10^−4 M; time course: day 0, 2, 4, 6, 8, 10, and 12). The susceptibility of each type of the transduced human corneal stromal cells to ganciclovir treatment was determined using 3 wells for each concentration at each time point (n=3). At each time point, the number of the cells was counted with trypan-blue staining. For counting with trypan-blue staining, an erythrocytometer (hematometer; product name: Burker-Turk deep 1/10 mm; product number: Tokyo No. 0880 (ERMA, Inc.)) was used. Immediately after staining, each sample was placed in a counting chamber of the erythrocytometer. Immediately after that, the number of the cells was counted. The average number of the cells on the zero-day of ganciclovir treatment at each treatment concentration was used as a baseline (100%) for the results of the cell number at each time point.

[2] = system: hTERT-transduced human corneal stromal cells (not transduced with the HSV-TK gene); experiment: as above; assay type: cell-based; details: any treatment concentration (up to 10^-4 M), 12th day after ganciclovir treatment, n=3
Protocol: as §1

Structure (SMILES): Nc1nc(O)c2ncn(COC(CO)CO)c2n1 [ganciclovir]
- number of the cells after ganciclovir treatment ([1]; 10^-4 M treatment group, 6th day after ganciclovir treatment): all the cells died
- number of the cells after ganciclovir treatment ([1]; 10^-7, 10^-6 and 10^-5 M groups, from the 8th day after ganciclovir treatment): concentration-dependent decrease in the number of the cells
- number of the cells after ganciclovir treatment [2]: did not decrease
